Source: patent US20250236608A1, “EGFR INHIBITORS” (Blueprint Medicines Corporation, priority 2022, published 2025)

Key:
EGFR (d746-750) = EGFR (d746-750) (Homo sapiens (Human), UniProt P00533, DEL746-750); assay: Biochemical EGFR inhibition assay, EGFR (d746-750); conditions: Caliper mobility shift; 1.0 mM ATP or ATP Km; read-out: Enz EGFR_Exon19-del746-750 IC50
[1] = molecular target: pEGFR (Tyr1068) in PC-9 cells (Ex19Del) (Homo sapiens (Human), UniProt P00533, DEL746-750); assay: PC-9 pEGFR AlphaLISA assay; format: cell-based; conditions: 4 hours incubation, p-EGFR (Tyr1068) AlphaLISA, read-out: Ext pEGFR_PC-9 Ex19Del IC50
Procedure, shortened: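 Cells seeded in phenol-free DMEM with 10% FBS adhered overnight at 37° C./5% CO2, then were exposed for 4 hours to a 4-fold, 10-point compound dilution series. After lysis, phospho-EGFR was read by AlphaLISA SureFire Ultra, and IC50 was fitted from percent inhibition versus log concentration.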

EGFR L858R = EGFR L858R (Homo sapiens (Human), UniProt P00533, L858R); assay: Biochemical EGFR inhibition assay, EGFR L858R; conditions: Caliper mobility shift; 1.0 mM ATP or ATP Km; read-out: Enz EGFR_L858R IC50
Sequence of EGFR L858R (P00533 25-1210 L858R): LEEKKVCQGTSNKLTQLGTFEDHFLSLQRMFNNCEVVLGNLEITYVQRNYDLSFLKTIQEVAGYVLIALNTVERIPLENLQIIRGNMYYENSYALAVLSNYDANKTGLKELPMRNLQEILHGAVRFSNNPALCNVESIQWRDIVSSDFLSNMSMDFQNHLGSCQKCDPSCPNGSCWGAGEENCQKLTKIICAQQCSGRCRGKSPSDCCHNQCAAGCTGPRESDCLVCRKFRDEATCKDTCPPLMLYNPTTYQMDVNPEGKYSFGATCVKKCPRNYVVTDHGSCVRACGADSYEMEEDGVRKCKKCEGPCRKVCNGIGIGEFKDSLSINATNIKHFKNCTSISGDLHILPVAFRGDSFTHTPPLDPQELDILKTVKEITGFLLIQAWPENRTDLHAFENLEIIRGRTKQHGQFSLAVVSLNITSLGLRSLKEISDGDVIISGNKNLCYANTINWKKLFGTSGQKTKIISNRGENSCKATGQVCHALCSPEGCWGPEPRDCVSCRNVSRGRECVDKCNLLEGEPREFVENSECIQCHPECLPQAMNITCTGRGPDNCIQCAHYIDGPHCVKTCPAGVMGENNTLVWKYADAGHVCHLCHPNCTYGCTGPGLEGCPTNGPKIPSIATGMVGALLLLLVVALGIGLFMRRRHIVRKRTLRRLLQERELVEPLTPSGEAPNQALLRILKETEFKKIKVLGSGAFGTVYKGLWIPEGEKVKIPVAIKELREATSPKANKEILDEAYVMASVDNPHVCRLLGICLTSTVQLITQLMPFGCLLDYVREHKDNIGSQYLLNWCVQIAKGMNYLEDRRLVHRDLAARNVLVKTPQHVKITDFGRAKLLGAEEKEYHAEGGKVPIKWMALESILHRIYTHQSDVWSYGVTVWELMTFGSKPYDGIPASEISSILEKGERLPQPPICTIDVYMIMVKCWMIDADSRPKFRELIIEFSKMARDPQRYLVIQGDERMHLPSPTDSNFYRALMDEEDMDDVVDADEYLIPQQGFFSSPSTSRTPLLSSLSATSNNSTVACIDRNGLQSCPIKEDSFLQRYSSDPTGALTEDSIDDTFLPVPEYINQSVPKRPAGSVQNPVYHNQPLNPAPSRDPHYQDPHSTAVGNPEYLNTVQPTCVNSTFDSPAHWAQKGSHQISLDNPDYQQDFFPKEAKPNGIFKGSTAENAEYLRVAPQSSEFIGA

Sequence of EGFR (d746-750) (P00533 other isoform, or with tags, fused parts or gaps del 1-694/del 746-750 limits assumed): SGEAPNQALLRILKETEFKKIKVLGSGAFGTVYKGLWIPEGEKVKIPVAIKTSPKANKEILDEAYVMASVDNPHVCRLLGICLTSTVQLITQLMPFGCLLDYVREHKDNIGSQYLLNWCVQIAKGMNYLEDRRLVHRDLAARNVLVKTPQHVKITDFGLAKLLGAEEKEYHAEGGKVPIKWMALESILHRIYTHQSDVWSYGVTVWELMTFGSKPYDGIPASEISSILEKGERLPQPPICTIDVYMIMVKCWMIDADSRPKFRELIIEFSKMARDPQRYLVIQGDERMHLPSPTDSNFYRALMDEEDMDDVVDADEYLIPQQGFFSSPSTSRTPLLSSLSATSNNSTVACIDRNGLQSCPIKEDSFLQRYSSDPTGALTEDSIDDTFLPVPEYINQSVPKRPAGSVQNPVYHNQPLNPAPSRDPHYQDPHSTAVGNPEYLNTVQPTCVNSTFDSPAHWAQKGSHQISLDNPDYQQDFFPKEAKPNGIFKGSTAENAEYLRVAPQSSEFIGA
Sequence of pEGFR (Tyr1068) in PC-9 cells (Ex19Del) (P00533 other isoform, or with tags, fused parts or gaps del 746-750): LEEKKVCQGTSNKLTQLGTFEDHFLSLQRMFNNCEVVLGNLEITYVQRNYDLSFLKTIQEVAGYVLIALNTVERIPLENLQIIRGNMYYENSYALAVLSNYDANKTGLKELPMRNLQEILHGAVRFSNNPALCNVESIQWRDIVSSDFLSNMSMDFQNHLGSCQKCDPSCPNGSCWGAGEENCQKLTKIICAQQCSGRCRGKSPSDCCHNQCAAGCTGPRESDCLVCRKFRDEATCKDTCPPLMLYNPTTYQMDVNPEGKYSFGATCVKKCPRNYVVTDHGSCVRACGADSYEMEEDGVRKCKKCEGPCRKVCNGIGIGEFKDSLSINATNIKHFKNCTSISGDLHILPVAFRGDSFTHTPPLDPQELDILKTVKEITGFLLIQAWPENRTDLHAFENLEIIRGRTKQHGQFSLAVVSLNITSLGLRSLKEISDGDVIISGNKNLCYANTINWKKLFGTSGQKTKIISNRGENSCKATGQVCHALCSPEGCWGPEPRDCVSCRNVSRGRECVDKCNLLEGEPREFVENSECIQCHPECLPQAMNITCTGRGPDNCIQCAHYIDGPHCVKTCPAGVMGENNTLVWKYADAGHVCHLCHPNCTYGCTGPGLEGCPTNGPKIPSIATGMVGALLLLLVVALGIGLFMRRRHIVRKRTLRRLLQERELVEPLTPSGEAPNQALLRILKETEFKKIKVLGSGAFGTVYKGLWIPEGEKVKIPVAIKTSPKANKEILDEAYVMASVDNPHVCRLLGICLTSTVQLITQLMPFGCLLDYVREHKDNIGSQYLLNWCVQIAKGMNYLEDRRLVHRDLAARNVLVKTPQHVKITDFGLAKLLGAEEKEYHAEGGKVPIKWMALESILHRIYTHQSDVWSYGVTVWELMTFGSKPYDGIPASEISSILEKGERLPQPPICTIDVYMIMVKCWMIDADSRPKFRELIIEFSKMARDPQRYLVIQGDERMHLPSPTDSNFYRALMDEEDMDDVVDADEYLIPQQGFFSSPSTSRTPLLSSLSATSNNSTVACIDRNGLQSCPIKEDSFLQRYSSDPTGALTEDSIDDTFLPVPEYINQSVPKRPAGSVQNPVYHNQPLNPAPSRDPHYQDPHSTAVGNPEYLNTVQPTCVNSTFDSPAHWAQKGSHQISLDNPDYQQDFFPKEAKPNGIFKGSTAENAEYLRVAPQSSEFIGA

| SMILES | IC50 (EGFR (d746-750)) [nM] | IC50 [1] [nM] | IC50 (EGFR L858R) [nM] |
| --- | --- | --- | --- |
| Cn1cc(-c2ccc3c(-c4c[nH]nc4-c4ccccc4F)ncnc3c2)cn1 [Example 443, 4-[3-(2-fluorophenyl)-1H-pyrazol-4-yl]-7-(1-methyl-1H-pyrazol-4-yl)quinazoline] | 0.4 | 0.3 | 0.8 |
| COc1cc2ncnc(-c3cn(C)nc3-c3ccccc3)c2nc1-c1cccc2c1OCC(=O)N2 [Example 154, 8-(7-methoxy-4-(1-methyl-3-phenyl-1H-pyrazol-4-yl)pyrido[3,2-d]pyrimidin-6-yl)-2H-benzo[b][1,4]oxazin-3(4H)-one] | 1.1 | 13 | 3.8 |
| CCOc1cc2ncnc(-c3cn(C)nc3-c3ccccc3)c2nc1N1CC2(COC2)C1 [Example 175, 6-(7-ethoxy-4-(1-methyl-3-phenyl-1H-pyrazol-4-yl)pyrido[3,2-d]pyrimidin-6-yl)-2-oxa-6-azaspiro[3.3]heptane] | 1 | 1.2 | 1.6 |
| COc1cc2ncnc(-c3sc(C)nc3-c3ccccc3)c2nc1NC(=O)C1CC1 [Example 437, N-(7-methoxy-4-(2-methyl-4-phenylthiazol-5-yl)pyrido[3,2-d]pyrimidin-6-yl)cyclopropanecarboxamide] | 0.8 | 4.2 | 1.4 |
| CCC(=O)Nc1cc2c(-c3cnn(C4CCOCC4)c3-c3ccccc3)ncnc2cc1OC [Example 498] | 349 | 589 | 306 |
| Cn1cc(-c2ncnc3cc(C(F)(F)F)c(NC(=O)C45COCC4C5)nc23)c(-c2ccccc2)n1 (stereo not drawn) [Example 488, N-(4-(1-methyl-3-phenyl-1H-pyrazol-4-yl)-7-(trifluoromethyl)pyrido[3,2-d]pyrimidin-6-yl)-3-oxabicyclo[3.1.0]hexane-1-carboxamide] | 126 | 981 | 416 |
| COc1cc2ncnc(-c3cn(CC(F)F)nc3-c3ccccc3)c2cc1NC(=O)C(F)F [Example 269, N-(4-(1-(2,2-difluoroethyl)-3-phenyl-1H-pyrazol-4-yl)-7-methoxyquinazolin-6-yl)-2,2-difluoroacetamide] | 0.9 | 0.9 | 1.3 |
| COc1cc2ncnc(-c3cn(C)nc3-c3ccccc3)c2cc1O[C@@H]1CCOC[C@H]1F [Example 18, 6-(((3R,4R)-3-fluorotetrahydro-2H-pyran-4-yl)oxy)-7-methoxy-4-(1-methyl-3-phenyl-1H-pyrazol-4-yl)quinazoline] | 1.8 | 4.3 | 3.1 |
| COc1cc2ncnc(-c3cn(C)nc3-c3ccccc3)c2cc1NC(=O)[C@]1(C)CCCO1 (single isomer, unassigned) [Example 258, (S)—N-(7-methoxy-4-(1-methyl-3-phenyl-1H-pyrazol-4-yl)quinazolin-6-yl)-2-methyltetrahydrofuran-2-carboxamide or (R)—N-(7-methoxy-4-(1-methyl-3-phenyl-1H-pyrazol-4-yl)quinazolin-6-yl)-2-methyltetrahydrofuran-2-carboxamide] | 0.9 | 4.2 | 3.8 |
| COc1cc2ncnc(-c3cn(C)nc3-c3ccccc3)c2cc1NC(=O)c1ccnn1C(F)(F)F [Example 204, N-(7-methoxy-4-(1-methyl-3-phenyl-1H-pyrazol-4-yl)quinazolin-6-yl)-1-(trifluoromethyl)-1H-pyrazole-5-carboxamide] | 1.3 | 1.4 | 2.1 |
| COc1cc2ncnc(-c3c[nH]nc3-c3ccc(F)cc3)c2nc1NC(=O)[C@]12COC[C@H]1C2 [Example 467, (1S,5S)—N-{4-[3-(4-fluorophenyl)-1H-pyrazol-4-yl]-7-methoxypyrido[3,2-d]pyrimidin-6-yl}-3-oxabicyclo[3.1.0]hexane-1-carboxamide] | 1.3 | 5.3 | 5.5 |
| COc1cc2ncnc(-c3cn(C)nc3-c3ccccc3)c2c(F)c1NC(=O)C1CCC1 [Example 295, N-(5-fluoro-7-methoxy-4-(1-methyl-3-phenyl-1H-pyrazol-4-yl)quinazolin-6-yl)cyclobutanecarboxamide] | 2.1 | 5.3 | 4.6 |
| COc1cc2ncnc(-c3cn(C)nc3-c3ccccc3)c2nc1NC(=O)c1cn(C(C)C)nc1C [Example 310, 1-isopropyl-N-(7-methoxy-4-(1-methyl-3-phenyl-1H-pyrazol-4-yl)pyrido[3,2-d]pyrimidin-6-yl)-3-methyl-1H-pyrazole-4-carboxamide] | 1.3 | 3.1 | 3.4 |
| Cn1cc(-c2ccc3c(-c4c[nH]nc4-c4ccccc4)ncnc3c2)cn1 [Example 441, 7-(1-methyl-1H-pyrazol-4-yl)-4-(3-phenyl-1H-pyrazol-4-yl)quinazoline] | 0.7 | 0.4 | 1.1 |
| COc1cc2ncnc(-c3cn(C)nc3-c3ccccc3)c2cc1NC(=O)[C@H](C)F (single isomer, unassigned) [Example 244, (S)-2-fluoro-N-(7-methoxy-4-(1-methyl-3-phenyl-1H-pyrazol-4-yl)quinazolin-6-yl) propenamide or (R)-2-fluoro-N-(7-methoxy-4-(1-methyl-3-phenyl-1H-pyrazol-4-yl)quinazolin-6-yl) propenamide] | 1.3 | 2.3 | 2.2 |
| COc1cc2ncnc(-c3cn(C)nc3-c3ccccc3)c2cc1N1CCOCC1 [Example 160, 4-(7-methoxy-4-(1-methyl-3-phenyl-1H-pyrazol-4-yl)quinazolin-6-yl)morpholine] | 2.9 | 8.3 | 20 |
| CCOc1cc2ncnc(-c3cn(CC)nc3-c3ccccc3)c2cc1[C@H](C)O (single isomer, unassigned) [Example 107, (S)-1-(7-ethoxy-4-(1-ethyl-3-phenyl-1H-pyrazol-4-yl)quinazolin-6-yl)ethan-1-ol or (R)-1-(7-ethoxy-4-(1-ethyl-3-phenyl-1H-pyrazol-4-yl)quinazolin-6-yl)ethan-1-ol] | 0.6 | 3.3 | 1.3 |
| COc1cc2ncnc(-c3cn(CC(F)F)nc3-c3ccccc3)c2nc1NC(=O)[C@]12C[C@H]1CN(C)C2 (single isomer, unassigned) [Example 396, (1R,5R)—N-(4-(1-(2,2-difluoroethyl)-3-phenyl-1H-pyrazol-4-yl)-7-methoxypyrido[3,2-d]pyrimidin-6-yl)-3-methyl-3-azabicyclo[3.1.0]hexane-1-carboxamide or (1S,5S)—N-(4-(1-(2,2-difluoroethyl)-3-phenyl-1H-pyrazol-4-yl)-7-methoxypyrido[3,2-d]pyrimidin-6-yl)-3-methyl-3-azabicyclo[3.1.0]hexane-1-carboxamide] | 1.1 | 0.5 | 1.7 |
| COc1cc2ncnc(-c3cn(C)nc3-c3ccccc3)c2cc1NC(=O)c1ccncc1Cl [Example 190, 3-chloro-N-(7-methoxy-4-(1-methyl-3-phenyl-1H-pyrazol-4-yl)quinazolin-6-yl)isonicotinamide] | 0.8 | 1.5 | 1.1 |
| COc1cc2ncnc(-c3cn(C)nc3-c3ccccc3)c2cc1NC(=O)c1sc(C2CC2)nc1C [Example 354, 2-cyclopropyl-N-(7-methoxy-4-(1-methyl-3-phenyl-1H-pyrazol-4-yl)quinazolin-6-yl)-4-methylthiazole-5-carboxamide] | 1.2 | 0.8 | 2.6 |
| CCOc1cc2ncnc(-c3cn(C(C)C)nc3-c3ccccc3)c2cc1[C@H](C)O (single isomer, unassigned) [Example 110, (S)-1-(7-ethoxy-4-(1-isopropyl-3-phenyl-1H-pyrazol-4-yl)quinazolin-6-yl)ethan-1-ol or (R)-1-(7-ethoxy-4-(1-isopropyl-3-phenyl-1H-pyrazol-4-yl)quinazolin-6-yl)ethan-1-ol] | 1.4 | 2.5 | 1.8 |
| COc1cc2ncnc(-c3cn(C)nc3-c3ccccc3)c2cc1NC(=O)C1(CN(C)C)CC1 [Example 189, 1-((dimethylamino)methyl)-N-(7-methoxy-4-(1-methyl-3-phenyl-1H-pyrazol-4-yl)quinazolin-6-yl)cyclopropane-1-carboxamide] | 1.9 | 4.3 | 4 |
| COc1cc2ncnc(-c3cn(C)nc3-c3ccccc3)c2cc1NC(=O)C1CCC1 [Example 347, N-(7-methoxy-4-(1-methyl-3-phenyl-1H-pyrazol-4-yl)quinazolin-6-yl)cyclobutanecarboxamide] | 1.2 | 0.6 | 2.4 |
| COc1cc2ncnc(-c3cn(C)nc3-c3ccccc3)c2cc1NC(=O)[C@@H]1C[C@@H]1C [Example 283, (1R,2S)—N-(7-methoxy-4-(1-methyl-3-phenyl-1H-pyrazol-4-yl)quinazolin-6-yl)-2-methylcyclopropane-1-carboxamide] | 0.9 | 1.1 | 1.7 |
| COc1cc2ncnc(-c3cn(C)nc3-c3ccccc3)c2nc1O[C@H](C)c1cccnc1F [Example 48, (R)-6-(1-(2-fluoropyridin-3-yl)ethoxy)-7-methoxy-4-(1-methyl-3-phenyl-1H-pyrazol-4-yl)pyrido[3,2-d]pyrimidine] | 1.4 | 1.1 | 1.8 |
